Reference: patent US6727387B2, “Quaternary ammonium salts having a tertiary alkyl group” (Rohm and Haas Company, priority 2001, dated 2004)

How the values were obtained:
[1] = test system: Staphylococcus aureus 6538; assay: High resolution minimum inhibitory concentration (HRMIC) test, Gram-positive bacterium; format: cell-based; conditions: for Activity against Gram-positive test organism (in words): HRMIC test; for MIC: M9GY, 10^6 CFU/ml, 30° C., 24 hours, read-out: MIC (ppm) Average, Gram-positive
Protocol: (§1) The five alkylation products from Route B, as described in Table 1, were tested for their ability to inhibit the growth of a Gram-positive bacterium, Staphylococcus aureus 6538 and a Gram-negative bacterium, Pseudomonas aeruginosa 13388 in a high resolution minimum inhibitory concentration (HRMIC) test. Two of the compounds showing biological activity were also tested for activity against sulfate-reducing bacteria (SRB). HR MIC Test Method: Varying amounts of test compound dissolved in DMSO were added to […] in a 96-well microtiter plate. Ten-fold serial dilutions were performed on a Biomek 2000 Workstation to obtain a range of closely spaced concentrations of biocide as illustrated in Table 2. A cell suspension of either Pseudomonas aeruginosa 13388 or Staphylococcus aureus 6538, adjusted to provide 10^6 CFU/ml in each well, was added to each microtiter plate. Kathon® WT biocide and Hyamine® 3500 biocide (dimethyl benzyl ammonium chloride) were included in the test for comparison. The microtiter plates were incubated at 30° C. for 24 hours and were then checked for the presence or absence of microbial growth in each well. […] Each compound was evaluated in duplicate on three separate days. [table]

[2] = test system: Pseudomonas aeruginosa 13388; assay: High resolution minimum inhibitory concentration (HRMIC) test, Gram-negative bacterium; format: cell-based; conditions: for Activity against Gram-negative test organism (in words): HRMIC test; for MIC: M9GY, 10^6 CFU/ml, 30° C., 24 hours, read-out: MIC (ppm) Average, Gram-negative
Protocol: as §1

Row | SMILES | Activity against Gram-positive test organism (in words) [1] | MIC [1] | Activity against Gram-negative test organism (in words) [2] | MIC [2]
1 | CC(C)(C)CC(C)(C)[N+](C)(C)C.[I-] [TOA I^−, N,N,N-Trimethyl t-octylammonium iodide] | showed no activity | > 1000 µg/mL | showed no activity | > 1000 µg/mL
2 | CC(C)(C)CC(C)(C)[N+](C)(C)C.[Br-] [TOA Br^−, N,N,N-Trimethyl t-octyl ammonium bromide] | showed no activity | > 1000 µg/mL | showed no activity | > 1000 µg/mL
